Reference: patent publication US9409975B2, “Antibody binding microbial heparin binding motif to retard or prevent microbial biofilm formation on implanted medical devices” (priority 2012, dated 2016)

Legend:
[1] = test system: C. albicans surface proteins; test: nLC-MSMS semi-quantitation of C. albicans surface proteins in supernatants of heparin-treated versus untreated organisms; format: cell-based, Candida albicans
Procedure: In other systems, heparin has been reported to cleave surface proteins (56), change protein conformation (57), and bind trypsin-sensitive lysine and arginine residues in histone H1 (58). In order to understand whether incubation with heparin changed the conformation of C. albicans surface proteins, 1×10^7 C. albicans were incubated for one hour at […] on a rotator with pharmacologic heparin (20,000 units/ml) diluted in RPMI-HEPES to a working concentration of 250 units/ml. C. albicans 1×10^7 C. albicans in an equal volume of RPMI-HEPES served as control. Supernatants were removed. 300 μl of Hep+ and Hep− supernatants were incubated with 100 μl avidin agarose beads (Thermo Scientific) for 60 min at room temperature on a rotator in the presence of 50 units heparin (Hep+); an equal volume of RPMI-HEPES was substituted for heparin in the Hep− supernatants. Beads were pelleted, and 100 μl beads were incubated with 100 μl 3.0 M NaCl for 30 mins at room temperature on a rotator. Beads were pelleted and the supernatants were withdrawn; 100 μl TCA was added to 100 μl Hep+ or 100 μl Hep− supernatants and incubated on ice overnight at 4° C. The TCA precipitates were stored at −80° C. until analysis by mass spectroscopy.
Six biological replicates of TCA precipitated protein pellets from equal cellular equivalence of heparin-treated (Hep+) and untreated (Hep−) conditioned medium from cultures of C. albicans were each solubilized in 50 μL Laemmli gel buffer. To remove any residual TCA and to further concentrate the samples, each was subjected to buffer exchange and concentration using an Amicon ultra 3 kDa microfuge filtration cartridge at 14,000×g for 15 min with five subsequent additions of 50 μL of 1× Laemmli gel buffer between spins. The resulting retained proteins (6 Hep+ and 6 Hep−) were subsequently prepared for SDS-PAGE by combining into two pools of three samples for the Hep+ and Hep− conditioned medium. The replicate sample pools were loaded onto two 4-12% mini gels and separated using the MOPS buffer system followed by silver staining to visualize the proteins using the Sigma Proteosilver system. The proteins were prepared for identification and quantitation by mass spectrometry by gridding the gel lanes from the replicates of Hep+ and Hep− samples into 11 equal regions followed by in gel trypsin digestion and extraction of peptides as described (59)
The recovered peptides from the gridded gel sections were analyzed by liquid chromatography coupled nano-electrospray mass spectrometry (nLC-MSMS) on a TripleTOF 5600 mass spectrometer (AB Sciex, Toronto Canada) attached to an Eksigent (Dublin Calif.) nanoLC ultra nanoflow system. […]

[2] = test system: Candida albicans BWP17 wt; test: Filipin and calcofluor white staining microscopy with or without heparin; format: cell-based; conditions: 100 units/ml heparin, heparin-treated vs untreated organisms
Procedure: Heparin effect on Candida albicans growth and morphology was determined. A single colony of BWP17 wt was inoculated into 3 ml YPD medium and incubated overnight at 30° C. with shaking at 225 rpm. Overnight cultures were diluted to an OD600 of 0.1 in 5 ml of YPD (yeast) or RPMI-HEPES (hyphae) in a 50 ml conical polypropylene tube and incubated in the presence or absence of 100 units/ml preservative-free pharmaceutical heparin at 30° C. for six hours. Cells (1 ml) were fixed with an equal volume of 4% formaldehyde in FACS buffer at 4° C. for one hour, then pelleted (7,000 rpm for 3 minutes) and washed with PBS. After reconstitution in 0.5 ml PBS, filipin (50 mg/ml stock solution in DMSO) was added to a final concentration of 100 μg/ml and incubated with cells at room temperature for five minutes. Cells were pelleted, washed with PBS and mounted on a slide using Fluoromount G. For calcofluor white staining, after six hours incubation, 1 μl of 1 mg/ml stock solution of calcofluor white in 0.1 N NaOH was added to 100 μl cells to a final calcofluor white concentration of 10 μg/ml.
Microscopy was performed by imaging filipin, PKH26, DAPI, and heparin-Alexa Fluor 488 on a Nikon Ti-E inverted microscope with a 100×CFI APO oil NA 1.49 objective. Filipin was excited with a Prior Lumen 200 metal halide light source set at 10% light output. […]

[3] = heparin 250 units/ml, compared to untreated organisms

Substance: heparin
- increase in VPTTDVSVVDLTVR from Tdh3 in supernatants [1, 3]: five-fold increase
- increase in intensity of IDVVDQAK from Eno1 in supernatants [1, 3]: seven-fold increase
- increase in intensity of SLLDAAVK from Pgk1 in supernatants [1, 3]: ten-fold increase
- increased intensities of other peptides from Eno1, Pgk1 and Tdh3 ([1]; versus corresponding peptides from untreated organisms, data not shown): 10-16 fold
- integrity of membrane sterols (filipin) and location of septin rings (calcofluor white) [2]: identical
